Results as given in ChEMBL document CHEMBL4270575, “Lead-like Drugs: A Perspective” (J Med Chem, 2018).

Key:
[1] = target: 3',5'-cyclic-AMP phosphodiesterase 4C (Homo sapiens, UniProt Q08493); assay: Inhibition of PDE4C1 (unknown origin)
[2] = target: 3',5'-cyclic-AMP phosphodiesterase 4D (Homo sapiens, UniProt Q08499); assay: Inhibition of PDE4D7 (unknown origin)
[3] = target: T1, 3',5'-cyclic-AMP phosphodiesterase 4B (Homo sapiens, UniProt Q07343); assay: Inhibition of PDE4B2 (unknown origin)
[4] = target: 3',5'-cyclic-AMP phosphodiesterase 4A (Homo sapiens, UniProt P27815); assay: Inhibition of PDE4A1A (unknown origin)
[5] = target: T1, 3',5'-cyclic-AMP phosphodiesterase 4B; assay: Inhibition of PDE4B1 (unknown origin)

Measured: IC50

T1 sequence (Q07343 whole entry): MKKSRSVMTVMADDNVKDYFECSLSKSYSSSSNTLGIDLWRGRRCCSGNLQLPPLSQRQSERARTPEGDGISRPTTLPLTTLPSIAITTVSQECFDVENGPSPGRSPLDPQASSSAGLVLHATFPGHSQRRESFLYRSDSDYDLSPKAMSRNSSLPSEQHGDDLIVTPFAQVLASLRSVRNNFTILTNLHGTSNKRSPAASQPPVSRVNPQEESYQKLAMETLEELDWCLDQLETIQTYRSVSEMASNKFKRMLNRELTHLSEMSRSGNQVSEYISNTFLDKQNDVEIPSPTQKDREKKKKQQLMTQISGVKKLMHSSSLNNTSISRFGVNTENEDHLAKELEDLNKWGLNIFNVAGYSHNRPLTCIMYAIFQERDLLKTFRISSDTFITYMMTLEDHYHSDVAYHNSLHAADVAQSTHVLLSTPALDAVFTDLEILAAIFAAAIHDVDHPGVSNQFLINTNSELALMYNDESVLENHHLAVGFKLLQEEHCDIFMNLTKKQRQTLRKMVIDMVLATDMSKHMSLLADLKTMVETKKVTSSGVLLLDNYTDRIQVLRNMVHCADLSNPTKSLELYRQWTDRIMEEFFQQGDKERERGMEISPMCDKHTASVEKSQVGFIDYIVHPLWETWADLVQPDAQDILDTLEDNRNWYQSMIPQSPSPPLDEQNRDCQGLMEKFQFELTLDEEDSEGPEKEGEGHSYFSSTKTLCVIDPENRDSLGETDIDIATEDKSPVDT
3',5'-cyclic-AMP phosphodiesterase 4A, sequence (P27815 whole entry): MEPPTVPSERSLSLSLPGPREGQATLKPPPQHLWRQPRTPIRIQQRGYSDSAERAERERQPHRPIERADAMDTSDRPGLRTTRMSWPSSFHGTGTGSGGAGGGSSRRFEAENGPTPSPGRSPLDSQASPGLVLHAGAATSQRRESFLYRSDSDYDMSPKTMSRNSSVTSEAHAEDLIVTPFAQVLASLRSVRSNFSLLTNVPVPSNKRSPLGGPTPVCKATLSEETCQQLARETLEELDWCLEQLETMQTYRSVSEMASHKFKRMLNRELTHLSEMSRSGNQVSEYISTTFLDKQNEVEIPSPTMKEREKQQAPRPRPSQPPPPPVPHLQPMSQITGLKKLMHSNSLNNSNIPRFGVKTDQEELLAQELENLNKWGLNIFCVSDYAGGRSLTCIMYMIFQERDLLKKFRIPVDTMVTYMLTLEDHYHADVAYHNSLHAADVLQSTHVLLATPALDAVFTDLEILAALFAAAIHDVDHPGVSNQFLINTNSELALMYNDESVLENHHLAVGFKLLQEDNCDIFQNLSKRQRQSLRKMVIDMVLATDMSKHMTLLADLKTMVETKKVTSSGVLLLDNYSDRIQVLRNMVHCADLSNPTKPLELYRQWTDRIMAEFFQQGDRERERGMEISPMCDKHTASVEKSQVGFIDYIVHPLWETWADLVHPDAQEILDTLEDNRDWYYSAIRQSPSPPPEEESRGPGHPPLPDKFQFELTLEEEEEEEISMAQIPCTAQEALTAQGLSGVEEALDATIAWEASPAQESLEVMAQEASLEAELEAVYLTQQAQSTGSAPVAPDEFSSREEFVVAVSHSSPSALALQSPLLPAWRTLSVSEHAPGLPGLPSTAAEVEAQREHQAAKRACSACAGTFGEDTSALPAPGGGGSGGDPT
3',5'-cyclic-AMP phosphodiesterase 4D, sequence (Q08499 whole entry): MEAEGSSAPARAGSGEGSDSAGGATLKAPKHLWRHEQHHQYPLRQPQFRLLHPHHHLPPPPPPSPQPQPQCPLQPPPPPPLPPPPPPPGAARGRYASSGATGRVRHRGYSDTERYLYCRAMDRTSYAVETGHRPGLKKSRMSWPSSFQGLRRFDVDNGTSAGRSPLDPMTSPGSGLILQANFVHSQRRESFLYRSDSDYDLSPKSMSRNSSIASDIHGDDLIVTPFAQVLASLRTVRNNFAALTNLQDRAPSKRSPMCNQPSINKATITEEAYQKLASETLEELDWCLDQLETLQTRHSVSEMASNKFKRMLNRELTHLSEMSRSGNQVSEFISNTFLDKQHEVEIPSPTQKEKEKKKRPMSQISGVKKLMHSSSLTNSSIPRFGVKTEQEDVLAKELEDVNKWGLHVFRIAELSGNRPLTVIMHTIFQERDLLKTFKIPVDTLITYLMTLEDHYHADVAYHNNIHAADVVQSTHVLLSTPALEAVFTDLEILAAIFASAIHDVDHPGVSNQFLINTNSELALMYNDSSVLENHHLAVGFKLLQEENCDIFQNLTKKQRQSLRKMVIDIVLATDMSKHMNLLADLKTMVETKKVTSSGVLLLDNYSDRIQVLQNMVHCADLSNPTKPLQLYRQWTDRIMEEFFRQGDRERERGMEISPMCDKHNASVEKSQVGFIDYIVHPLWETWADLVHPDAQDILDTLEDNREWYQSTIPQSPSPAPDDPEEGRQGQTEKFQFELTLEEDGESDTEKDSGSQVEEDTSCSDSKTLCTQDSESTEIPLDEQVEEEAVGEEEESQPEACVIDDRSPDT
3',5'-cyclic-AMP phosphodiesterase 4C, sequence (Q08493 whole entry): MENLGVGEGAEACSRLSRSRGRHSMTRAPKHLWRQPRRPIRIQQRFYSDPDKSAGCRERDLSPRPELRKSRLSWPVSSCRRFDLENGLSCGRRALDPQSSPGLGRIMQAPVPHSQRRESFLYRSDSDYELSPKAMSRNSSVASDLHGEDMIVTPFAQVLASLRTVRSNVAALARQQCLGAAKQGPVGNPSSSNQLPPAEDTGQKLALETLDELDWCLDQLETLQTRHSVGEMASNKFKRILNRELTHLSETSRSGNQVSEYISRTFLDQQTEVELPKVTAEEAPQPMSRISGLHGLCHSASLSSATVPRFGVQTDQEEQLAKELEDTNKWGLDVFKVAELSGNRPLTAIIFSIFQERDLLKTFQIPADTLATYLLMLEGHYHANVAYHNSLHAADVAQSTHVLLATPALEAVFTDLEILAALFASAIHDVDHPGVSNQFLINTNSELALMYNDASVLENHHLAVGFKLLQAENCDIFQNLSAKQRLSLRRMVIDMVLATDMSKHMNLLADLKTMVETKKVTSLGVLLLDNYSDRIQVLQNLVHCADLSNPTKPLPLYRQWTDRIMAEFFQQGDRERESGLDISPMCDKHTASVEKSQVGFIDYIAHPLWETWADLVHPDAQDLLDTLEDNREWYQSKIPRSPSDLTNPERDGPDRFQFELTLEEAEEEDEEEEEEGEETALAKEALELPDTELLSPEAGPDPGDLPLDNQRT

N#Cc1ccc(Oc2ccc3c(c2)COB3O)cc1 [CRISABOROLE]
0.055 to 0.34 µM: all assays above
